# From ChEMBL document CHEMBL3885881, “DrugMatrix”
# Species on record: Rattus norvegicus
# Assay: DrugMatrix - Regimen: Daily Repeat
# Format: toxicity, organism-based, Sprague-Dawley
# Set-up: regimen Daily Repeat, gender Male, age 6-8 weeks
# Settings: in vivo, po, route oral GAVAGE, […]; for ABSOLUTE BASOPHIL / ABSOLUTE EOSINOPHIL / ABSOLUTE LYMPHOCYTE / ABSOLUTE MONOCYTE / ABSOLUTE SEGMENTED NEUTROPHIL / BASOPHIL / EOSINOPHIL / ERYTHROCYTE COUNT / HEMATOCRIT / HEMOGLOBIN / LEUKOCYTE COUNT / LYMPHOCYTE / MEAN CORPUSCULAR HEMOGLOBIN / MEAN CORPUSCULAR HEMOGLOBIN CONCENTRATION / MEAN CORPUSCULAR VOLUME / MONOCYTE / NEUTROPHIL / NUCLEATED RED BLOOD CELLS / PLATELET COUNT: tissue Blood; for ALANINE AMINOTRANSFERASE / ALBUMIN / ALKALINE PHOSPHATASE / ASPARTATE AMINOTRANSFERASE / BLOOD UREA NITROGEN / CARBON DIOXIDE / CHLORIDE / CHOLESTEROL / CREATINE PHOSPHOKINASE / CREATININE / GLUCOSE / LACTATE DEHYDROGENASE / LIPASE / PHOSPHORUS / POTASSIUM / SODIUM / TOTAL BILIRUBIN / TOTAL PROTEIN / URIC ACID: tissue Plasma
# [1] = 5 mg/kg, 120 h, dose level Low, time 5 day
# [2] = 50 mg/kg, 72 h, dose level High, time 3 day
# [3] = 50 mg/kg, 120 h, dose level High, time 5 day
smiles,measurement,setting,value
"O=C(Nc1ccc(Cl)c(Cl)c1)c1cc(Cl)cc(Cl)c1O [3,3',4',5-TETRACHLOROSALICYLANILIDE]",ABSOLUTE BASOPHIL,[1],0 CELLS/uL
same,ABSOLUTE EOSINOPHIL,[1],0 CELLS/uL
same,ABSOLUTE LYMPHOCYTE,[1],11308.33 CELLS/uL
same,ABSOLUTE MONOCYTE,[1],94.67 CELLS/uL
same,ABSOLUTE SEGMENTED NEUTROPHIL,[1],1830.33 CELLS/uL
same,BASOPHIL,[1],0%
same,EOSINOPHIL,[1],0%
same,ERYTHROCYTE COUNT,[1],5.77 x10E6/uL
same,HEMATOCRIT,[1],35.8%
same,HEMOGLOBIN,[1],13.8 G/DL
same,LEUKOCYTE COUNT,[1],13.23 x10E3/uL
same,LYMPHOCYTE,[1],85.33%
same,MEAN CORPUSCULAR HEMOGLOBIN,[1],23.93 pg
same,MEAN CORPUSCULAR HEMOGLOBIN CONCENTRATION,[1],38.53 G/DL
same,MEAN CORPUSCULAR VOLUME,[1],62.1 fL
same,MONOCYTE,[1],0.67%
same,NEUTROPHIL,[1],14%
same,NUCLEATED RED BLOOD CELLS,[1],0.33 /100WBC
same,PLATELET COUNT,[1],1151 x10E3/uL
same,ALANINE AMINOTRANSFERASE,[1],59 u/L
same,ALBUMIN,[1],4.07 G/DL
same,ALKALINE PHOSPHATASE,[1],368.33 u/L
same,ASPARTATE AMINOTRANSFERASE,[1],97.67 u/L
same,BLOOD UREA NITROGEN,[1],14.33 mg/dL
same,CARBON DIOXIDE,[1],28.67 mmol/L
same,CHLORIDE,[1],101.33 MEQ/L
same,CHOLESTEROL,[1],63.33 mg/dL
same,CREATINE PHOSPHOKINASE,[1],534.67 u/L
same,CREATININE,[1],0.21 mg/dL
same,GLUCOSE,[1],164 mg/dL
same,LACTATE DEHYDROGENASE,[1],242 u/L
same,LIPASE,[1],11.33 u/L
same,PHOSPHORUS,[1],10.3 mg/dL
same,POTASSIUM,[1],5.94 MEQ/L
same,SODIUM,[1],143.17 MEQ/L
same,TOTAL BILIRUBIN,[1],0.13 mg/dL
same,TOTAL PROTEIN,[1],5.77 G/DL
same,URIC ACID,[1],1.63 mg/dL
same,ABSOLUTE BASOPHIL,[2],0 CELLS/uL
same,ABSOLUTE EOSINOPHIL,[2],28.67 CELLS/uL
same,ABSOLUTE LYMPHOCYTE,[2],9453.33 CELLS/uL
same,ABSOLUTE MONOCYTE,[2],0 CELLS/uL
same,ABSOLUTE SEGMENTED NEUTROPHIL,[2],884.67 CELLS/uL
same,BASOPHIL,[2],0%
same,EOSINOPHIL,[2],0.33%
same,ERYTHROCYTE COUNT,[2],5.84 x10E6/uL
same,HEMATOCRIT,[2],36.23%
same,HEMOGLOBIN,[2],13.87 G/DL
same,LEUKOCYTE COUNT,[2],10.37 x10E3/uL
same,LYMPHOCYTE,[2],91%
same,MEAN CORPUSCULAR HEMOGLOBIN,[2],23.83 pg
same,MEAN CORPUSCULAR HEMOGLOBIN CONCENTRATION,[2],38.33 G/DL
same,MEAN CORPUSCULAR VOLUME,[2],62.23 fL
same,MONOCYTE,[2],0%
same,NEUTROPHIL,[2],8.67%
same,NUCLEATED RED BLOOD CELLS,[2],0 /100WBC
same,PLATELET COUNT,[2],1272.33 x10E3/uL
same,ALANINE AMINOTRANSFERASE,[2],61.67 u/L
same,ALBUMIN,[2],4.1 G/DL
same,ALKALINE PHOSPHATASE,[2],432.67 u/L
same,ASPARTATE AMINOTRANSFERASE,[2],89.67 u/L
same,BLOOD UREA NITROGEN,[2],13.33 mg/dL
same,CARBON DIOXIDE,[2],31 mmol/L
same,CHLORIDE,[2],101.67 MEQ/L
same,CHOLESTEROL,[2],79.67 mg/dL
same,CREATINE PHOSPHOKINASE,[2],183.67 u/L
same,CREATININE,[2],0.21 mg/dL
same,GLUCOSE,[2],125.67 mg/dL
same,LACTATE DEHYDROGENASE,[2],128.33 u/L
same,LIPASE,[2],11.33 u/L
same,PHOSPHORUS,[2],10.67 mg/dL
same,POTASSIUM,[2],6.23 MEQ/L
same,SODIUM,[2],144.27 MEQ/L
same,TOTAL BILIRUBIN,[2],0.2 mg/dL
same,TOTAL PROTEIN,[2],5.8 G/DL
same,URIC ACID,[2],1.03 mg/dL
same,ABSOLUTE BASOPHIL,[3],0 CELLS/uL
same,ABSOLUTE EOSINOPHIL,[3],19.33 CELLS/uL
same,ABSOLUTE LYMPHOCYTE,[3],5934.67 CELLS/uL
same,ABSOLUTE MONOCYTE,[3],58 CELLS/uL
same,ABSOLUTE SEGMENTED NEUTROPHIL,[3],688 CELLS/uL
same,BASOPHIL,[3],0%
same,EOSINOPHIL,[3],0.33%
same,ERYTHROCYTE COUNT,[3],6.18 x10E6/uL
same,HEMATOCRIT,[3],36.87%
same,HEMOGLOBIN,[3],14 G/DL
same,LEUKOCYTE COUNT,[3],6.7 x10E3/uL
same,LYMPHOCYTE,[3],88.33%
same,MEAN CORPUSCULAR HEMOGLOBIN,[3],22.73 pg
same,MEAN CORPUSCULAR HEMOGLOBIN CONCENTRATION,[3],38.03 G/DL
same,MEAN CORPUSCULAR VOLUME,[3],59.67 fL
same,MONOCYTE,[3],0.67%
same,NEUTROPHIL,[3],10.67%
same,NUCLEATED RED BLOOD CELLS,[3],0 /100WBC
same,PLATELET COUNT,[3],1091 x10E3/uL
same,ALANINE AMINOTRANSFERASE,[3],49.33 u/L
same,ALBUMIN,[3],4.27 G/DL
same,ALKALINE PHOSPHATASE,[3],412 u/L
same,ASPARTATE AMINOTRANSFERASE,[3],76 u/L
same,BLOOD UREA NITROGEN,[3],15.67 mg/dL
same,CARBON DIOXIDE,[3],32 mmol/L
same,CHLORIDE,[3],101 MEQ/L
same,CHOLESTEROL,[3],77.33 mg/dL
same,CREATINE PHOSPHOKINASE,[3],289 u/L
same,CREATININE,[3],0.25 mg/dL
same,GLUCOSE,[3],133.33 mg/dL
same,LACTATE DEHYDROGENASE,[3],94.67 u/L
same,LIPASE,[3],11.67 u/L
same,PHOSPHORUS,[3],9.23 mg/dL
same,POTASSIUM,[3],5.61 MEQ/L
same,SODIUM,[3],145.93 MEQ/L
same,TOTAL BILIRUBIN,[3],0.13 mg/dL
same,TOTAL PROTEIN,[3],6.07 G/DL
same,URIC ACID,[3],1.03 mg/dL
